Measured values as given in US9834823B2, “Primers, assays and methods for detecting an E. coli subtype” (priority 2012, dated 2017).

Columns and labels:
Format in all cases: cell-based
[1] = tested on: extraintestinal Escherichia coli isolates; assay: Antimicrobial susceptibility testing (CLSI breakpoints), Olmsted County isolates; conditions: for Resistance prevalence among H30 ST131: H30 ST131 subclone, N = 70; for Resistance prevalence among non-H30 ST131: non-H30 ST131, N = 10
[2] = tested on: Escherichia coli clinical isolates from U.S. veterans; assay: Susceptibility testing (broth microdilution or disk diffusion) at VAMCs with population back-calculations; conditions: for Prevalence of resistance, H30 ST131: H30 ST131 subclone isolates (H30 subclone vs. others); for Prevalence of resistance, ST131: ST131 isolates (ST131 vs. others); for Prevalence of resistance, Total (%): all isolates; for Estimated fraction due to ST131: fraction of resistance phenotype due to ST131; for Overall prevalence in population, %: resistance phenotype, back-calculated with 29% FQ resistance
[3] = tested on: Escherichia coli clinical isolates (ESBL-positive and ESBL-negative; ST131 subclones); assay: Broth microdilution antimicrobial susceptibility, NorthShore ESBL case-control isolates; conditions: for No. of resistant isolates (column %), H30-Rx (N = 47): H30-Rx subclone isolates (N = 47) within the H30 ST131 subclone; for No. of resistant isolates (column %), H30, non-Rx (N = 15): H30 non-Rx isolates (N = 15) within the H30 ST131 subclone; for No. of resistant isolates (column %), H30 (N = 62): H30 subclone isolates (N = 62) among 71 E. coli ST131 isolates; for No. of resistant isolates (column %), Non-H30 (N = 9): non-H30 isolates (N = 9) among 71 E. coli ST131 isolates
From the text: As reported elsewhere, the 267 E. coli study isolates were collected between 2007 and 2010 as part of a prospective case-control study conducted at NorthShore University HealthSystem (Banerjee, R J et al. “Predictors and molecular epidemiology of community-onset extended-spectrum beta-lactamase (ESBL) Escherichia coli infection in a Midwestern community,” 2013 Infect Control Hosp Epidemiol; in press). Cases were defined as adults with ESBL-producing E. coli cultured from any specimen type. Controls were defined as the 1 or 2 patients with non-ESBL E. coli isolates identified just subsequent to the case isolate, and with the same specimen type and location of collection. Isolates obtained in the outpatient setting or within 48 hours of hospital admission were considered causes of community-associated infection. Further study details are as described (Banerjee, R J et al. “Predictors and molecular epidemiology of community-onset extended-spectrum beta-lactamase (ESBL) Escherichia coli infection in a Midwestern community,” 2013 Infect Control Hosp Epidemiol; in press).
The resistance score was the total number of agents to which an isolate was resistant. This study was approved by the NorthShore and VA Medical Center institutional review boards.

[4] = all non-H30 isolates (H30 subclone vs. others)
[5] = all non-ST131 isolates (ST131 vs. others)
[6] = resistance prevalence among H30 ST131 subclone isolates relative to all other isolates
[7] = resistance prevalence among ST131 isolates relative to all other isolates
[8] = ESBL-negative isolates, All N = 167
[9] = ESBL-negative isolates, Non-ST131 N = 145
[10] = ESBL-negative isolates, ST131 N = 22
[11] = ESBL-positive isolates, All N = 100
[12] = ESBL-positive isolates, Non-ST131 N = 51
[13] = ESBL-positive isolates, ST131 N = 49

Compound | No. of resistant isolates (column %) ([1]; All isolates, N = 299) | Resistance prevalence among H30 ST131 [1] [%] | No. of resistant isolates (column %) ([1]; Other STs, N = 129) | No. of resistant isolates (column %) ([1]; ST9, N = 32) | No. of resistant isolates (column %) ([1]; ST69, N = 15) | No. of resistant isolates (column %) ([1]; ST73, N = 25) | No. of resistant isolates (column %) ([1]; ST127, N = 18) | No. of resistant isolates (column %) ([1]; ST131, N = 80) | Resistance prevalence among non-H30 ST131 [1] [%] | Prevalence of resistance, H30 ST131 [2] | No. resistant (column %) [3, 8] | No. resistant (column %) [3, 9] | No. resistant (column %) [3, 10] | No. resistant (column %) [3, 11] | No. resistant (column %) [3, 12] | No. resistant (column %) [3, 13] | No. of resistant isolates (column %), H30-Rx (N = 47) [3] | No. of resistant isolates (column %), H30, non-Rx (N = 15) [3] | No. of resistant isolates (column %), H30 (N = 62) [3] | No. of resistant isolates (column %), Non-H30 (N = 9) [3] | further results
CC1(C)S[C@@H]2[C@H](NC(=O)[C@H](N)c3ccccc3)C(=O)N2[C@H]1C(=O)O [Ampicillin, ampicillin] | 156 (52) | 81 | 3 (41) | 13 (41) | 11 (73) | 10 (40) | 4 (22) | 65 (81) | 80 | 76 | 73 (44) | 54 (37) | 19 (86) | 100 (100) | 51 (100) | 49 (100) | 46 (98) No. (column %) | 15 (100) No. (column %) | 61 (98) No. (column %) | 7 (78) No. (column %) | Prevalence of resistance, ST131 [2]: 77; Prevalence of resistance, Total (%) [2]: 46%; Prevalence of resistance, Others (%) [2, 4]: 36%; Prevalence of resistance, Others (%) [2, 5]: 34%; Estimated fraction due to ST131 [2]: .46; Overall prevalence in population, % [2]: 46%; Prevalence ratio of resistance [2, 6]: 2.1; Prevalence ratio of resistance [2, 7]: 2.3
Cc1nnc(SCC2=C(C(=O)O)N3C(=O)[C@@H](NC(=O)Cn4cnnn4)[C@H]3SC2)s1 [Cefazolin, cefazolin] | 93 (31) | 58 | 30 (23) | 3 (9) | 5 (33) | 7 (28) | 3 (17) | 45 (57) | 50 | 27 | 10 (6) | 9 (6) | 1 (5) | 99 (99) | 51 (100) | 48 (98) | 43 (91) No. (column %) | 5 (33) No. (column %) | 48 (77) No. (column %) | 1 (11) No. (column %) | Prevalence of resistance, ST131 [2]: 29; Prevalence of resistance, Total (%) [2]: 17%; Prevalence of resistance, Others (%) [2, 4]: 14%; Prevalence of resistance, Others (%) [2, 5]: 12%; Estimated fraction due to ST131 [2]: .47; Overall prevalence in population, % [2]: 17%; Prevalence ratio of resistance [2, 6]: 2.0; Prevalence ratio of resistance [2, 7]: 2.3
CC(C)(O/N=C(\C(=O)N[C@@H]1C(=O)N2C(C(=O)[O-])=C(C[n+]3ccccc3)CS[C@H]12)c1csc(N)n1)C(=O)O [Ceftazidime] |  |  |  |  |  |  |  |  |  |  | 1 (1) | 1 (1) | 0 (0) | 92 (92) | 47 (92) | 45 (92) | 40 (85) No. (column %) | 4 (27) No. (column %) | 44 (71) No. (column %) | 1 (11) No. (column %) | 
CO/N=C(\C(=O)N[C@@H]1C(=O)N2C(C(=O)O)=C(CSc3nc(=O)c(=O)[nH]n3C)CS[C@H]12)c1csc(N)n1 [Ceftriaxone, ceftriaxone] | 16 (6) | 9 | 8 (7) | 0 | 0 | 0 | 0 | 8 (11) | 29 | 4 | 1 (1) | 1 (1) | 0 (0) | 98 (98) | 51 (100) | 47 (96) | 42 (89) No. (column %) | 4 (27) No. (column %) | 46 (74) No. (column %) | 1 (11) No. (column %) | Prevalence of resistance, ST131 [2]: 3; Prevalence of resistance, Total (%) [2]: 2%; Prevalence of resistance, Others (%) [2, 4]: 2%; Prevalence of resistance, Others (%) [2, 5]: 2%; Estimated fraction due to ST131 [2]: .43; Overall prevalence in population, % [2]: 2%; Prevalence ratio of resistance [2, 6]: 2.0; Prevalence ratio of resistance [2, 7]: 1.9
gentamicin | 29 (10) | 30 | 5 (4) | 0 | 0 | 0 | 1 (6) | 23 (29) | 20 | 28 | 12 (7) | 2 (1) | 10 (45) | 48 (48) | 30 (59) | 18 (37) | 15 (32) No. (column %) | 8 (53) No. (column %) | 23 (37) No. (column %) | 5 (56) No. (column %) | Prevalence of resistance, ST131 [2]: 29; Prevalence of resistance, Total (%) [2]: 11%; Prevalence of resistance, Others (%) [2, 4]: 5%; Prevalence of resistance, Others (%) [2, 5]: 3%; ST131's overall contribution to antimicrobial resistance within the source E. coli population ([2]; back-calculations): 76%; Estimated fraction due to ST131 [2]: .76; Overall prevalence in population, % [2]: 11%; Prevalence ratio of resistance [2, 6]: 5.4; Prevalence ratio of resistance [2, 7]: 8.2
